From PubChem BioAssay AID540260 (Sanford-Burnham Center for Chemical Genomics, 2011)
Activity calls are given as the source filed them. The rule behind the calls is not given here.

These compounds were tested against Alkaline phosphatase, placental type (Homo sapiens) (UniProt P05187) (assay: PLAP enzyme inhibition by analogs, SAR follow-up, selectivity assay for human IAP inhibitor project, biochemical, human PLAP isozyme, set 2 (AID 540260)). Details: purified placental alkaline phosphatase enzyme activity.
For `O=C(CNS(=O)(=O)c1ccc2[nH]c(=O)oc2c1)Nc1ccc2c(c1)OCO2`, the IC50 was > 100 µM (inactive).
`COc1ccc(NC(=O)CNS(=O)(=O)c2ccc3[nH]c(=O)oc3c2)cc1OC` was tested, and the IC50 was > 100 µM (inactive).
In the case of `Cc1ccc(C)c(NC(=O)CCNS(=O)(=O)c2ccc3[nH]c(=O)oc3c2)c1`, the IC50 is reported as > 100 µM (inactive).
With `O=C(CNS(=O)(=O)c1ccc2[nH]c(=O)oc2c1)NCc1ccc2c(c1)OCO2` the IC50 was > 100 µM (inactive).
`N#Cc1ccc(CNC(=O)CCNS(=O)(=O)c2ccc3[nH]c(=O)oc3c2)cc1` was tested, and the IC50 was > 100 µM (inactive).
